Measurements as given in US8679495B2, “Use of anti-90K monoclonal antibodies for the prevention and treatment of tumors and metastases thereof” (MediaPharma S.r.l., priority 2009, dated 2014).

System: human breast cancer cell MDA-MD-231
Assay: Tumor growth of breast cancer cells injected subcutaneously in nude mice
Type: in vivo
Settings: MDA-MD-231 in nude mice, intraperitoneal, SP-2 10 μg/kg twice a week, docetaxel 7.5 mg/kg once a week, up to 44 days
Description: Materials and methods: Nude mice were injected subcutaneously with 5×10^6 human breast cancer cell MDA-MD-231 (cells expressing 90K). One group was injected by intraperitoneal route with phosphate buffer and served as a control. Other groups were treated by intraperitoneal route with SP-2 antibody at a dose of 10 μg/kg twice a week, or a control IgG at the same dose, or with docetaxel at a dose of 7.5 mg/kg once a week, or with a combination of SP-2 and docetaxel. Tumor growth was followed up by measuring lesion diameters up to 44 days after injection. Each group, control and treated, consisted of 8 animals.

## CC(=O)O[C@@]12CO[C@@H]1C[C@H](O)[C@@]1(C)C(=O)[C@H](O)C3=C(C)[C@@H](OC(=O)[C@H](O)[C@@H](NC(=O)OC(C)(C)C)c4ccccc4)C[C@@](O)([C@@H](OC(=O)c4ccccc4)[C@H]21)C3(C)C [docetaxel]
  tumor growth in comparison with control group: significantly reduced tumor growth
